The results in this text go back to patent US20060286611A1, “Antibodies against biotinylated histones and related proteins and assays related thereto” (Board of Regents of University of Nebraska, priority 2005, published 2006).

This assay has as its system histone H1. As to the kind of experiment: Proteolytic digestion of histone H1. It is filed as biochemical. The protocol:
Here the inventors determined whether biotin release is mediated by proteolytic digestion of histones. One milligram of histone H1 was dissolved in 100 μl of 20 mM sodium acetate [pH 4.5]. 0.4 microliters of histone solution was mixed with 7.1 μl of nuclear extract containing 20 μg of protein; samples were incubated at 37° C. for 20 min. The following controls were tested: histones incubated without nuclear extract, and histones incubated with 2.5 microliter trypsin [with or without 20 mM of the trypsin inhibitor, phenylmethylsulphonylfluoride (PMSF)]. Reactions were terminated by heating the samples with equal volume of loading buffer at 72° C. for 10 min. Proteins were resolved using 4-12% Bis-Tris gels (Invitrogen, Carlsbad, Calif.) as described (Stanley et al., 2001) and were visualized using coomassie blue.

Turning to `O=S(=O)(F)Cc1ccccc1` [PMSF, phenylmethylsulphonylfluoride], the “degradation of histone H1 by trypsin in the presence of the inhibitor” value (20 mM) was “prevented”.
For trypsin, under “37° C. for 20 min”, the “degradation of histone H1 by gel electrophoresis” value is given as “degraded completely”.
